The values that follow come from patent publication US20240115597A1, “METHOD FOR TREATING AND/OR PREVENTING HEARING LOSS BY USING TOLL-LIKE RECEPTOR 7 AND/OR 9 ANTAGONIST” (Kaohsiung Chang Gung Memorial Hospital, priority 2022, published 2024).

Entries after “also recorded” stand apart in the source; their conditions may differ.

Experiment [1] relates to CBA/CaJ mice. In words: Noise-induced auditory brainstem response (ABR) threshold shift. It is filed as in vivo. The conditions noted are these: 3 weeks after 106-dB noise exposure, chloroquine 50 mg/kg intraperitoneal, ODN 2088 5 mg/kg subcutaneous, four treatments. As to the method:
(§1) The animal models used in this example and the following examples are as follows. Male CBA/CaJ mice at 4-6 weeks of age were purchased from National Laboratory Animal Center in Taiwan. The mice accessed to water and a regular mouse diet, and were kept at 22±1° C. under a standard 12h:12h light-dark cycle to acclimate for one week before the experiments. The lights were on from 5:00 to 17:00).
(§2) The experimental procedure of noise exposure is as follows. Three awake CBA/CaJ mice in the same group were placed in a sound chamber, with one mouse per stainless steel cage. The sound chamber was fitted with a loudspeaker, driven by an amplifier connected to a CD player. Broadband noise (BBN) with a frequency of 2 to 20 kHz was compiled onto a CD and equalized with software. […]
(§3) The experimental procedure of auditory brainstem response (ABR) is as follows. […] Body temperature was monitored and maintained near 37° C. with a heating pad. […] ABRs were measured at 8, 16, and 32 kHz. […] Thresholds were determined for each frequency by reducing the intensity in 10 dB increments and then in 5 dB steps near the threshold until no organized responses were detected. […] ABR thresholds were detected at before noise exposure and one week/three week after noise exposure. […]

Experiment [2] concerns CBA/CaJ mice. In words: Noise-induced reduction of ABR wave I amplitude. The conditions noted are these: 16 kHz; 106-dB noise; chloroquine 50 mg/kg intraperitoneal, ODN 2088 5 mg/kg subcutaneous. The experiment is classed as in vivo. As to the method: as §1
The experimental procedure of noise exposure is as follows. Three awake CBA/CaJ mice in the same group were placed in a sound chamber, with one mouse per stainless steel cage. The sound chamber was fitted with a loudspeaker, driven by an amplifier connected to a CD player. […]
as §3
To test if TLR7/9 antagonists could protect the auditory nerve against acoustic trauma, we measured the ABR wave I amplitudes at 16 kHz, which is one of the most sensitive frequencies of the auditory spectrum in the mice.

Another experiment relates to outer hair cell (OHC). Put plainly: Outer hair cell (OHC) counts in cochlear surface preparations after 106-dB noise. The conditions noted are these: basal segment, chloroquine 50 mg/kg intraperitoneal. It is filed as in vivo, mice. The protocol:
as §1, §2
To examine if TLR7/9 antagonist could protect the OHC from acoustic trauma, we counted the OHCs in surface preparations after 106-dB noise exposure. […]
The experimental procedure of immunocytochemistry for outer hair cell (OHC) counts is as follows. […] Cell populations in the phalloidin-stained stereociliary bundles and circumferential F-actin rings around the cuticular plate of the OHCs were evaluated using an epifluorescence microscope. […] Each successive 0.25 mm field was evaluated beginning from the apex to the base for counting the number of OHCs. […]

For experiment [3], the system named is cochlear cytokines and chemokines. In words: Quantitative real-time RT-PCR of cochlear cytokine and chemokine gene expression after noise. The experiment is classed as in vivo, mice. The conditions noted are these: one day after systemic (intraperitoneal) chloroquine treatment; noise exposure; normalized to Actb. The protocol:
as §1, §2
To test if TLR7/9 antagonist could affect the expression of cochlear cytokines and chemokines after noise, we used quantitative real-time reverse transcription polymerase chain reaction (quantitative real-time RT-PCR) to analyze gene expression in the cochlea one day after systemic chloroquine treatment.
The experimental procedure of RNA isolation and quantitative real-time RT-PCR is as follows. […] Real-time quantitative PCR was performed in an ABI 7500 Fast Real-Time System (Applied Biosystems). […]

A further experiment deals with NF-κB. Put plainly: NF-κB immunostaining of the cochlea after noise. The experiment is classed as in vivo, mice. The note with it: lateral wall, middle-basal segment; 106-dB noise. As to the method: as §1
(§4) The experimental procedure of noise exposure is as follows. Three awake CBA/CaJ mice in the same group were placed in a sound chamber, with one mouse per stainless steel cage. The sound chamber was fitted with a loudspeaker, driven by an amplifier connected to a CD player. Broadband noise (BBN) with a frequency of 2 to 20 kHz was compiled onto a CD and equalized with software. Sound levels were calibrated with a sound level meter (type 2250; Brtiel & Kja✓r) fitted with a microphone (type 4189; Brtiel & Kja✓r, Na✓rum, Denmark) at the locations of each cage within the sound chamber, before and after exposure to the noise. The control (sham) group was put in the same cage without exposure to noise for 2 hours. An intensity of 106 dB broadband noise was used to produce permanent threshold shifts.
(§5) Chloroquine was dissolved in saline. ODN 2088 was dissolved in endotoxin-free water. The control group was endotoxin-free water. […]

The next experiment concerns Iba-1±cells. Put plainly: Iba-1± cell (macrophage) infiltration into the cochlea after noise. The experiment is classed as in vivo, mice. The protocol: as §1, §4, §5

As for `CCN(CC)CCCC(C)Nc1ccnc2cc(Cl)ccc12` (stereo not drawn) [chloroquine], the “noise-induced ABR threshold shift” value in the experiment with CBA/CaJ mice [1] is reported as “attenuate 106-dB noise-induced auditory threshold shifts”. Also, the “noise-induced ABR threshold shift” value in the experiment on CBA/CaJ mice [1] (listed as Chloroquine) was “decreased the noise-induced ABR thresholds shift”. Also, the “noise-induced decrease in ABR wave I amplitude” value with CBA/CaJ mice [2] is on record as “attenuate 106-dB noise-induced wave I amplitude reduction at 16 kHz; also recorded: attenuated the noise-induced decrease in the amplitudes”. In the experiment with outer hair cell (OHC), the “percentage of OHC loss” value is reported as “decreases noise-induced outer hair cell (OHC) loss; also recorded: attenuated the percentage of OHC loss over this area”. Moreover, in experiment [3], the “mRNA expression of Tlr9, MyD88, Il-1β, Tnf-α and Irf-7 in the cochlea” value is “decreases noise-induced elevation of cochlear cytokines and chemokines expression; also recorded: attenuated these changes”; the “noise-induced elevation of Ccl2, Ccl4 and Ccl12 expression in the cochlea” value is “decreases noise-induced elevation of cochlear cytokines and chemokines expression; also recorded: decreased the noise-induced elevation”. For the same molecule, in the experiment with NF-κB, the “immunostaining of NF-κB in the cochlea” value is reported as “attenuates noise-induced nuclear factor kappa-B (NF-κB) immunostaining of the cochlea; also recorded: decreased the immunostaining of NF-κB”. Moreover, the “number of Iba-1±signals, quantification of immunofluorescence” value in the experiment with Iba-1±cells (each segment of the cochlea) is recorded as “reduces the number of Iba-1macrophage infiltration in the cochlea; also recorded: decreases the number of Iba-1signals in each segment of the cochlea”. In addition, in the experiment on Iba-1±cells (lower spiral ligament of the cochlea), the “Iba-1±cell infiltration, immunohistochemistry” value is given as “attenuates noise-induced infiltration of Iba-1macrophages; also recorded: attenuates the increase in Iba-1cell infiltration”.
